Measurements published in ChEMBL document CHEMBL1157282, “Cytotoxic constituents from the stem bark of Dichapetalum gelonioides collected in the Philippines” (J Nat Prod, 2006).
Converted amounts (≈) assume the structure as drawn.

Experiments:
[1] = Cytotoxicity against human BC1 cells; format: functional; settings: read-out: ED50 (the source's name)
Lu1 = assay: Cytotoxicity against human Lu1 cells; format: functional; settings: read-out: ED50 (the source's name)
Col2 = assay: Cytotoxicity against human Col2 cells; format: functional; settings: read-out: ED50 (the source's name)
KB [2] = assay: Cytotoxicity against human KB cells; format: functional; settings: read-out: ED50 (the source's name)
KB [3] = assay: Cytotoxicity against drug-resistant human KB cells in presence of vinblastine; format: functional; settings: read-out: ED50 (the source's name)
KB [4] = assay: Cytotoxicity against drug-resistant human KB cells in absence of vinblastine; format: functional; settings: read-out: ED50 (the source's name)
LNCaP = assay: Cytotoxicity against human LNCaP cells; format: functional; settings: read-out: ED50 (the source's name)
SW626 = assay: Cytotoxicity against human SW626 cells; format: functional; settings: read-out: ED50 (the source's name)
SK-N-SH = assay: Cytotoxicity against human SKNSH cells; format: functional; settings: read-out: ED50 (the source's name)
[5] = Cytotoxicity against human MEL1 cells; format: functional; settings: read-out: ED50 (the source's name)
[6] = Cytotoxicity against human MEL2 cells; format: functional; settings: read-out: ED50 (the source's name)
MCF7 = assay: Cytotoxicity against human MCF7 cells; format: functional; settings: read-out: ED50 (the source's name)
[7] = Cytotoxicity against HUVEC cells; format: cell-based; settings: human, read-out: ED50 (the source's name)
L1210 = assay: Cytotoxicity against mouse L1210 cells; format: functional

Work on `C=C(C)[C@@H]1CC[C@]2(C(=O)O)CC[C@]3(C)[C@H](CC[C@@H]4[C@@]5(C)CC[C@H](O)C(C)(C)[C@@H]5CC[C@]43C)[C@@H]12` [BETULINIC ACID] yielded an EC50 [1] of over 20 µg/mL, an EC50 (Lu1) of over 20 µg/mL and an EC50 (Col2) of over 20 µg/mL. The EC50 (KB [2]) was over 20 µg/mL, the EC50 (KB [3]) was over 20 µg/mL and the EC50 (KB [4]) was over 20 µg/mL. The EC50 (LNCaP) was over 20 µg/mL, the EC50 (SW626) was over 20 µg/mL and the EC50 (SK-N-SH) was over 20 µg/mL. For the same molecule, the EC50 [5] was 1.1 µg/mL (≈ 2.41 µM) and the EC50 [6] was 2 µg/mL (≈ 4.38 µM).
Work on `C/C(=C\[C@H]1C[C@@H]([C@@H]2CC[C@]34C[C@]23C=C[C@@H]2[C@@]3(C)CC=C5C[C@@H](c6ccccc6)OC[C@]5(C)[C@@H]3C[C@@H](O)[C@]24C)C(=O)O1)CO` [DICHAPETALIN A] yielded an EC50 [1] of over 20 µg/mL, an EC50 (Lu1) of 4.1 µg/mL (≈ 7.01 µM) and an EC50 (Col2) of 6.1 µg/mL (≈ 10.4 µM). The EC50 (KB [2]) was 3.6 µg/mL (≈ 6.16 µM), the EC50 (KB [3]) was 11.6 µg/mL and the EC50 (KB [4]) was over 20 µg/mL. For the same molecule, the EC50 (LNCaP) was 7 µg/mL (≈ 12 µM), the EC50 (SW626) was 0.2 µg/mL (≈ 0.342 µM) and the EC50 (SK-N-SH) was 6.9 µg/mL (≈ 11.8 µM). The EC50 (MCF7) was 2.1 µg/mL (≈ 3.59 µM), the CC50 [7] was 5.5 µg/mL (≈ 9.4 µM) and the EC90 (L1210) was under 0.0001 µg/mL.
Work on `CC1=C(O)C(=O)C[C@@H]2[C@@]3(C)CC[C@](C)(C(=O)O)C[C@@H]3CC[C@]12C` yielded an EC50 [1] of 12.2 µg/mL (≈ 38.1 µM), an EC50 (Lu1) of over 20 µg/mL and an EC50 (Col2) of 11.2 µg/mL (≈ 35 µM). For the same molecule, the EC50 (KB [2]) was 16.2 µg/mL (≈ 50.6 µM), the EC50 (KB [3]) was over 20 µg/mL and the EC50 (KB [4]) was over 20 µg/mL. The EC50 (LNCaP) was 10.8 µg/mL (≈ 33.7 µM), the EC50 (SW626) was 15.8 µg/mL (≈ 49.3 µM) and the EC50 (SK-N-SH) was 10.4 µg/mL (≈ 32.5 µM).
In the case of `C=C1C(=O)C(O)=C[C@@H]2[C@@]3(C)CC[C@](C)(C(=O)O)C[C@@H]3CC[C@]12C`, the EC50 [1] was 4 µg/mL (≈ 12.6 µM), the EC50 (Lu1) was 3.8 µg/mL (≈ 11.9 µM) and the EC50 (Col2) was 2.7 µg/mL (≈ 8.48 µM). For the same molecule, the EC50 (KB [2]) was 3.7 µg/mL (≈ 11.6 µM), the EC50 (KB [3]) was 4.3 µg/mL and the EC50 (KB [4]) was 5 µg/mL (≈ 15.7 µM). It also gave an EC50 (LNCaP) of 3.7 µg/mL (≈ 11.6 µM), an EC50 (SW626) of 5 µg/mL (≈ 15.7 µM) and an EC50 (SK-N-SH) of 9 µg/mL (≈ 28.3 µM).
In the case of `COc1ccc([C@@H]2CC3=CC[C@]4(C)[C@H]5C=C[C@]67C[C@]6(CC[C@H]7[C@@H]6C[C@H](/C=C(\C)CO)OC6=O)[C@]5(C)[C@H](O)C[C@H]4[C@@]3(C)CO2)cc1` [DICHAPETALIN K], the EC50 (Lu1) was 1 µg/mL (≈ 1.63 µM), the EC50 (LNCaP) was 2.6 µg/mL (≈ 4.23 µM) and the EC50 (SW626) was 3 µg/mL (≈ 4.88 µM). The EC50 (MCF7) was 1 µg/mL (≈ 1.63 µM) and the CC50 [7] was 2.2 µg/mL (≈ 3.58 µM).
In the case of `COc1ccc([C@@H]2CC3=CC[C@]4(C)[C@H]5C[C@@H](O)[C@]67C[C@]6(CC[C@H]7[C@@H]6C[C@H](/C=C(\C)CO)OC6=O)[C@]5(C)[C@H](O)C[C@H]4[C@@]3(C)CO2)cc1` [DICHAPETALIN J], the EC50 [1] was over 20 µg/mL, the EC50 (Lu1) was 14.5 µg/mL (≈ 22.9 µM) and the EC50 (Col2) was 2.1 µg/mL (≈ 3.32 µM). The EC50 (KB [2]) was 16.4 µg/mL (≈ 25.9 µM), the EC50 (KB [3]) was over 20 µg/mL and the EC50 (KB [4]) was over 20 µg/mL. The EC50 (LNCaP) was 16.4 µg/mL (≈ 25.9 µM), the EC50 (SW626) was 0.4 µg/mL (≈ 0.632 µM) and the EC50 (SK-N-SH) was 4 µg/mL (≈ 6.32 µM).
In the case of `C=C1C(=O)C(O)=C[C@@H]2[C@@]3(C)CC[C@](C)(C(=O)OC)C[C@@H]3CC[C@]12C`, the EC50 [1] was 0.6 µg/mL (≈ 1.8 µM), the EC50 (Lu1) was 1.6 µg/mL (≈ 4.81 µM) and the EC50 (Col2) was 0.8 µg/mL (≈ 2.41 µM). The EC50 (KB [2]) was 0.7 µg/mL (≈ 2.11 µM), the EC50 (KB [3]) was 1.7 µg/mL and the EC50 (KB [4]) was 1.8 µg/mL (≈ 5.41 µM). It also gave an EC50 (LNCaP) of 0.9 µg/mL (≈ 2.71 µM), an EC50 (SW626) of 1.6 µg/mL (≈ 4.81 µM) and an EC50 (SK-N-SH) of 0.8 µg/mL (≈ 2.41 µM).
For `C/C(=C\[C@H]1C[C@@H]([C@@H]2CC[C@]34C[C@]23[C@H](O)C[C@@H]2[C@@]3(C)CC=C5C[C@@H](c6ccccc6)OC[C@]5(C)[C@@H]3C[C@@H](O)[C@]24C)C(=O)O1)CO` [DICHAPETALIN I], the EC50 [1] was over 20 µg/mL, the EC50 (Lu1) was 7.6 µg/mL (≈ 12.6 µM) and the EC50 (Col2) was 4.1 µg/mL (≈ 6.8 µM). The EC50 (KB [2]) was 16.6 µg/mL (≈ 27.5 µM), the EC50 (KB [3]) was over 20 µg/mL and the EC50 (KB [4]) was over 20 µg/mL. For the same molecule, the EC50 (LNCaP) was over 20 µg/mL, the EC50 (SW626) was 0.5 µg/mL (≈ 0.829 µM) and the EC50 (SK-N-SH) was 9.9 µg/mL (≈ 16.4 µM).
For `C[C@H]1C(=O)CC[C@H]2[C@]3(C)CC[C@@]4(C)[C@@H]5CC(C)(C)CC[C@]5(C)CC[C@]4(C)[C@H]3C[C@@H](O)[C@]12C` [ZEYLANOL], the EC50 [1] was over 20 µg/mL, the EC50 (Lu1) was 10.9 µg/mL (≈ 24.6 µM) and the EC50 (Col2) was over 20 µg/mL. It also gave an EC50 (KB [2]) of over 20 µg/mL, an EC50 (KB [3]) of over 20 µg/mL and an EC50 (KB [4]) of over 20 µg/mL. It also gave an EC50 (SW626) of over 20 µg/mL and an EC50 (SK-N-SH) of 16.8 µg/mL (≈ 37.9 µM).
For `C/C(=C\[C@H]1C[C@@H]([C@@H]2CC[C@]34C[C@]23CC[C@@H]2[C@@]3(C)CC=C5C[C@@H](c6ccccc6)OC[C@]5(C)[C@@H]3C[C@@H](O)[C@]24C)C(=O)O1)CO` [DICHAPETALIN L], the EC50 (Lu1) was 1 µg/mL (≈ 1.7 µM), the EC50 (LNCaP) was 1.1 µg/mL (≈ 1.87 µM) and the EC50 (SW626) was 8.3 µg/mL (≈ 14.1 µM). For the same molecule, the EC50 (MCF7) was 2.1 µg/mL (≈ 3.58 µM) and the CC50 [7] was 4.2 µg/mL (≈ 7.16 µM).
`C[C@H]1C(=O)CC[C@H]2[C@]3(C)CC[C@@]4(C)[C@@H]5CC(C)(C)CC[C@]5(CO)CC[C@]4(C)[C@H]3C[C@@H](O)[C@]12C` showed an EC50 [1] of over 20 µg/mL, an EC50 (Lu1) of over 20 µg/mL and an EC50 (Col2) of over 20 µg/mL. The EC50 (KB [2]) was over 20 µg/mL, the EC50 (KB [3]) was over 20 µg/mL and the EC50 (KB [4]) was over 20 µg/mL. For the same molecule, the EC50 (LNCaP) was over 20 µg/mL, the EC50 (SW626) was over 20 µg/mL and the EC50 (SK-N-SH) was 13 µg/mL (≈ 28.3 µM).
